# Data as given in patent publication US10617695B2, “Ophthalmic compositions containing alcaftadine” (Vistakon Pharmaceuticals, LLC, priority 2006, dated 2020).
# Experiments:
# E-cadherin = experiment: Integrity of conjunctival epithelium after conjunctival allergen challenge: E-cadherin expression (confocal microscopy); format: in vivo, mice
# Experimental: To investigate the ability of alcaftadine to maintain the integrity of conjunctival epithelium, changes in the expression of the tight junction proteins ZO-1 and E-cadherin (an induction for E-cadherin and qualitative change-from focal to diffuse for ZO-1) were evaluated following specific conjunctival allergen challenge. These changes are associated with an increased permeability of the conjunctival and other epithelial tissues. This in vivo experiment examined what effect alcaftadine (topical administration 1 and 2 hours pre-challenge) had on the modulation of these proteins.
# Mice were sensitized with short ragweed (SRW) in aluminum hydroxide via intraperitoneal administration (Day 0, 7, and 15) and eye drop instillation (Day 8 and 15). On Day 20, mice were further sensitized with eye drops containing only SRW. On Day 27, the mice were treated topically with either 5 μL alcaftadine or vehicle at 1 and 2 hours prior to challenge. SRW was instilled topically to both eyes. The expression of these proteins in naive eyes were also monitored. Changes in the expression of the tight junction proteins ZO-1 and E-cadherin were observed 1-hour post conjunctival allergen challenge with SRW. The proteins were detected using FITC-conjugated monoclonal antibodies specific for ZO-1 and E-cadherin and were visualized by confocal microscopy (Ziess). […]
# [1] = target: T1, human histamine H4 receptor (Homo sapiens, UniProt Q9H3N8); experiment: H4 receptor antagonist assay: shift of histamine EC50, Schild plot, in transfected SK-N-MC cells; format: cell-based
# T1 construct: express a reporter gene construct and the human H4 receptor full-coding region; expressed in transfected cells; host or cells: SK-N-MC cells with a CRE-beta-galactosidase reporter
# Experimental: Alcaftadine and 6,11-dihydro-11-(1-methyl-4-piperdinylidene)-5H-imidazo[2,1-b][3]benazepine-3-carboxylic acid (CAS #147083-93-0) were prepared at 10 mM in 100% dimethylsulfoxide (DMSO) for the binding assays and at 10 mM in Na/K phosphate buffer, pH 7.0, for the cellular assays. Cell pellets from SK-N-MC cells transfected with human H4 receptor were homogenized in 20 mM Tris-HCl/0.5 mM ethylendediaminetetraacetic acid (EDTA) pH 8.0 (TE buffer). Supernatants collected after centrifugation at 800 g were recentrifuged at 30,000 g for 30 min. Pellets were re-homogenized in TE buffer. […] Non-specific binding was defined with 100 μM cold histamine. […] Seven concentrations of compound were tested spanning 10^−11 to 10^−5 M with each concentration being run in triplicate. […] This assay was run twice and the results are reported as the average of the two runs. SK-N-MC cell lines were created that express a reporter gene construct and the human H4 receptor full-coding region. The reporter gene was β-galactosidase under the control of cyclic adenosine monophosphate (cAMP) responsive elements. Cells were plated in 96-well plates the night before the assay. Antagonists were added 10 min prior to the addition of histamine, which was added directly to the cell medium. Forskolin (5 μM final concentration) was added 10 min after the addition of histamine. Cells were returned to the incubator for 6 h at 37° C. The medium was then aspirated and cells were lysed with 25 μL of 0.1× assay buffer (10 mM sodium phosphate, pH 8, 0.2 mM MgSO4, 0.01 mM MnCl2) and incubated at room temperature for 10 min. […] Color was quantitated on a microplate reader at absorbance 570 nm. […]
# To test whether alcaftadine or 6,11-dihydro-11-(1-methyl-4-piperdinylidene)-5H-imidazo[2,1-b][3]benazepine-3-carboxylic acid (CAS #147083-93-0) were antagonists of the H4 receptor, the ability of the compounds shift the EC50 of the histamine inhibition of forskolin-induced cAMP increases was assessed in SK-N-MC cells transfected with the human histamine H4 receptor. […]
# [2] = system: RBL-CCR1 (Rat Basophil Leukemia-Chemokine Receptor-1) cell line; experiment: Mast cell degranulation / cell stabilization in RBL-CCR1 cells; format: cell-based
# Experimental: The cell stabilization potential of alcaftadine was evaluated using the RBL-CCR1 (Rat Basophil Leukemia-Chemokine Receptor-1) cell line as a way of investigating its ability to effect mast cell stabilization. The use of basophil cell lines to assess anti-allergic drugs for cell stabilization potential is well established. Physiologically, basophils are similar to mast cells, containing pre-formed inflammatory mediators that are released through a similar degranulation process involving IgE cross-linking. Because these cell lines are readily available, they present efficiencies over conducting stabilization assays in mast cell lines.
# Cultured RBL-CCR1 cells were sensitized to anti-DNP IgE. Following sensitization, cells were treated with various concentrations of alcaftadine or its major active metabolite (0.083%, 0.0083% and 0.00083%) or ophthalmic vehicle (placebo), and stimulated with DNP and/or MIP-1a (Macrophage Inflammatory Protein-1 alpha, a degranulation enhancer) to induce degranulation. A 10× and 100× placebo control solution (ophthalmic vehicle solution) in D-DEM (Dulbecco's modified Eagle's medium) was also employed.
# However, co-stimulation induced a robust degranulation response.
# [3] = Systemic (plasma) levels of alcaftadine in patients; format: in vivo, human; settings: for Mean Cmax: plasma, 0.25% ophthalmic solution bilaterally
# Experimental: Patients were bilaterally dosed with 0.25% ophthalmic solutions of alcaftadine for seven days. The plasma levels of those patients was assessed pre-dose, and 0.25, 0.5, 1, 1.5, 2, 3, 4, 6, 8, 12, and 18 hour post medication instillation on days one and seven. Plasma concentrations of Alcaftadine reached Cmax rapidly and declined to below the lower limit of quantification (0.01 ng/mL) by 3 hours post dosing.
# T1 sequence (Q9H3N8 whole entry): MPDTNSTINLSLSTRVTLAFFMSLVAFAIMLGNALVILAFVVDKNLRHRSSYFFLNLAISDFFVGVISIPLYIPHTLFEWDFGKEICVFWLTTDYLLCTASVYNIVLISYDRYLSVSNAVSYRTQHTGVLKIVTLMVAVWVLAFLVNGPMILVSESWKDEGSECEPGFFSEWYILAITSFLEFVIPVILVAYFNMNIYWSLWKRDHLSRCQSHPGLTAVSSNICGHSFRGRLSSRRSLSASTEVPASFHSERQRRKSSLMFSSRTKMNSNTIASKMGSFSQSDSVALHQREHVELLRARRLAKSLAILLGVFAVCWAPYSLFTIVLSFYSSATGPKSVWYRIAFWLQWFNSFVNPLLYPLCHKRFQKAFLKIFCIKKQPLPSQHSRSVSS
compound,measurement,setting,value
"CN1CCC(=C2c3ccccc3CCn3c(C=O)cnc32)CC1 [Alcaftadine, 6,11-dihydro-11-(1-methyl-4-piperidinylidene)-5H-imidazo[2,1-b][3]benzazepine-3-carboxaldehyde]","E-cadherin staining, alcaftadine treatment versus naive (negative control)","E-cadherin; 5 μL topical at 1 and 2 hours prior to challenge, 1-hour post challenge",no or minimal difference
same,induction of E-cadherin expression,E-cadherin; following specific conjunctival allergen challenge,inhibits the induction of E-cadherin expression
same,mode of action at the receptor,[1]; parallel and rightward shifts in the histamine dose response curves,competitive antagonist
same,pA2,[1]; x-intercept of the Schild plot,5.6
same,overall membrane stabilization,[2],effective membrane stabilizing agents
same,stabilization effect added to that of placebo,[2]; 10× dose level,enhanced the stabilization effect
same,degranulation at the highest concentration,"[2]; […], DNP-HSA alone, MIP-1a alone, and co-stimulation",unanticipated and significant degranulation
same,cell stabilization compared to co-stimulation control and negative controls (placebo 10× and placebo 100×),"[2]; co-stimulation assay, concentrations of […] and […], p<0.0001 for both concentrations",superior at cell stabilization
same,maximum plasma concentrations,[3]; all subjects,less than 0.12 ng/mL
same,Mean Cmax,[3]; Day 1,0.051 ng/mL
same,Mean Cmax,[3]; Day 7,0.060 ng/mL
same,time by which plasma concentrations declined to below the lower limit of quantification,"[3]; post dosing, lower limit of quantification 0.01 ng/mL",≤ 3 h
